This is an account of results in US6750228B1, “Aromatic sulfone hydroxamic acid metalloprotease inhibitor” (priority 1997, dated 2004).

Where two headings read alike, the source gives them in different places.

One data set addresses T1, MMP-1 (Homo sapiens, UniProt P03956).
T1 construct: made in house; host or cells: transfected HT-1080 cells (provided by Dr. Harold Welgus, Washington University)
T1 sequence (P03956 100-469): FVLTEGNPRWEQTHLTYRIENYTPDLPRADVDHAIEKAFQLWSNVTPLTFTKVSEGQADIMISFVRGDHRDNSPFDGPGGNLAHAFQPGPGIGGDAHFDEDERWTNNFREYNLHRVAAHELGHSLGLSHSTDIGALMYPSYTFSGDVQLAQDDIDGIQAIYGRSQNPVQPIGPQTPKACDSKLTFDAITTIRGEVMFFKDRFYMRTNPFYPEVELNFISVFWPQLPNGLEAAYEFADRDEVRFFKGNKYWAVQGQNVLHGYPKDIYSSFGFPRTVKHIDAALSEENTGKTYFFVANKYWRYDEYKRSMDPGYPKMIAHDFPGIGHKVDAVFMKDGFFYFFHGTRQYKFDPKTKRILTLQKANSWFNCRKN
Briefly: biochemical. As to conditions: read-out: MMP-1 IC50. The gist of the method: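 Substrate MCA-PLGL-Dpa-AR-NH2 at 4 μM final; pH 7.5 Tris/NaCl/CaCl2 buffer with 0.05% polyethyleneglycol lauryl ether, 1% DMSO, room temperature. MMP-1 was expressed in transfected HT-1080 cells and APMA-activated.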

The next data set has as its target T2, MMP-13 (Homo sapiens, UniProt P45452).
T2 construct: made in house; host or cells: baculovirus / insect cells
Briefly: biochemical. The gist of the method:
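APMA- or trypsin-activated enzymes were preincubated with inhibitor for 5 min at room temperature, then the fluorogenic substrate MCA-Pro-Leu-Gly-Leu-Dpa-Ala-Arg-NH2 was added to a final 4 μM.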

The next data set deals with T3, MMP-2 (Homo sapiens, UniProt P08253).
T3 construct: made in house; provided by Dr. Gregory Goldberg, Washington University
T3 sequence (P08253 110-660): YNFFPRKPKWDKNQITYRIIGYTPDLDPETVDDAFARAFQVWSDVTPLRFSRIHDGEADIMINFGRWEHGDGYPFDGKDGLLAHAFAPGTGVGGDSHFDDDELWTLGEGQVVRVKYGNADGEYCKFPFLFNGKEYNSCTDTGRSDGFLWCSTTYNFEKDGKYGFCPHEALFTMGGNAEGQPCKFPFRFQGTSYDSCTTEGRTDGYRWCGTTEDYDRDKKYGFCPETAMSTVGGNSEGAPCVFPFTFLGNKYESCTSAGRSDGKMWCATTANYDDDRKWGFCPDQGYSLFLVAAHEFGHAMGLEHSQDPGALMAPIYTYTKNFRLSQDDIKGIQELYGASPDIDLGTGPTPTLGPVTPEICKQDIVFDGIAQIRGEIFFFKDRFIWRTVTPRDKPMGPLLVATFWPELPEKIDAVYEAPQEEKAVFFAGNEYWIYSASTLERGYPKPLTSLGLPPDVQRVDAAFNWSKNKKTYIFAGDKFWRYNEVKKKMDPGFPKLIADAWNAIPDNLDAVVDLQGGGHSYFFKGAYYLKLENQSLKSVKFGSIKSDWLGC
Briefly: biochemical. The gist of the method:
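Assay buffer 100 mM Tris-HCl, 100 mM NaCl, 10 mM CaCl2, pH 7.5. Activated MMP + inhibitor, 5 min RT; then methoxycoumarin peptide substrate, 4 μM final. Readout fluorescence; IC50 calculated.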

The subject of data set [1] is advanced, rapidly progressive, treatment-refractory solid tumor cancers. As to conditions: cited from earlier work.
The mark [2] stands for this setting: recombinant human MMP-1, MCA peptide substrate 4 μM, pH 7.5, room temperature.
The mark [3] stands for this setting: recombinant human MMP-13, MCA peptide substrate 4 μM, pH 7.5, room temperature, read-out: MMP-13 IC50.
Where [4] appears, read: recombinant human MMP-2, MCA peptide substrate 4 μM, pH 7.5, room temperature, read-out: MMP-2 IC50.

Turning to `CN1CCCN(C2CCN(c3ccc(S(=O)(=O)C4(C(=O)NO)CCOCC4)cc3)CC2)CC1` [Example 807], the IC50 (usually the concentration at which inhibition is half-maximal) on MMP-1 (setting [2]) is over 10 µM; at MMP-13 (setting [3]) it was 200 nM; on MMP-2 (setting [4]) it was 1400 nM.

On to `COc1ccc(CCCOC2CCN(c3ccc(S(=O)(=O)C4(C(=O)NO)CCOCC4)cc3)CC2)cc1OC` [Example 811], for which the IC50 was over 10 µM on MMP-1 (setting [2]), 14.8 nM at MMP-13 (setting [3]) and 110 nM at MMP-2 (setting [4]).

As to `CS(=O)(=O)N1CCCN(C2CCN(c3ccc(S(=O)(=O)C4(C(=O)NO)CCOCC4)cc3)CC2)CC1` [Example 815], the values for the IC50 on MMP-1 (setting [2]), at MMP-13 (setting [3]) and at MMP-2 (setting [4]) were over 10 µM, 140 nM and 1400 nM, respectively.

Regarding `O=C(NO)C1(S(=O)(=O)c2ccc(N3CCC(CC4CC4)CC3)cc2)CCOCC1` [Example 816], the IC50 is over 10 µM at MMP-1 (setting [2]), 1200 nM on MMP-13 (setting [3]) and over 10000 nM at MMP-2 (setting [4]).

Take `CC1CCCC(S(=O)(=O)C2CCN(c3ccc(S(=O)(=O)C4(C(=O)NO)CCOCC4)cc3)CC2)C1` (centres unmarked) [Example 822]: the half-inhibitory concentration (IC50) on MMP-1 (setting [2]) is over 10 µM; at MMP-13 (setting [3]) it was 10 nM; on MMP-2 (setting [4]) it was 210 nM.

Turning to `COc1ccc(C2CCN(c3ccc(S(=O)(=O)C4(C(=O)NO)CCOCC4)cc3)CC2)c(C)c1` [Example 823], the IC50 at MMP-1 (setting [2]) is over 10 µM; against MMP-13 (MMP-13 IC50 (nM)), 7 nM; against MMP-2 (MMP-2 IC50 (nM)), 505 nM.

As to `O=C(NO)C1(S(=O)(=O)c2ccc(N3CCC(c4ccccc4O)CC3)cc2)CCOCC1` [Example 825], the values for the IC50 at MMP-1, on MMP-13 (setting [3]) and against MMP-2 (MMP-2 IC50 (nM)) were over 10 µM, 11.3 nM and 70 nM, respectively.

In the case of `O=C(NO)C1(S(=O)(=O)c2ccc(N3CCC(C(O)c4ccccc4)CC3)cc2)CCOCC1` (centres unmarked) [Example 827], the IC50 on MMP-1 (setting [2]) was over 10 µM; on MMP-13 (setting [3]) it was 10 nM; at MMP-2 (setting [4]), 540 nM.

Take `CCCCOc1cccc(S(=O)(=O)N2CC(Oc3ccc(S(=O)(=O)C4(C(=O)NO)CCOCC4)cc3)C2)c1` [Example 830]: the results for the IC50 on MMP-1 (setting [2]), on MMP-13 (setting [3]) and at MMP-2 (setting [4]) were over 10 µM, 17.9 nM and 2100 nM, respectively.

With `CCc1cccc([C@@H](C)C2CCN(c3ccc(S(=O)(=O)C4(C(=O)NO)CCOCC4)cc3)CC2)c1` [Example 831], the IC50 at MMP-1 (setting [2]) is over 10 µM; at MMP-13 (setting [3]) it was 2.3 nM; at MMP-2 (setting [4]), 170 nM.

For the compound `CN(C)S(=O)(=O)N(C)C1CCN(c2ccc(S(=O)(=O)C3(C(=O)NO)CCOCC3)cc2)CC1` [Example 832], the IC50 on MMP-1 (setting [2]) is over 10 µM; on MMP-13 (setting [3]) it was 18.1 nM; at MMP-2 (setting [4]), 2000 nM.

Take `COc1ccc(C2CCN(c3ccc(S(=O)(=O)C4(C(=O)NO)CCOCC4)cc3)CC2)c(OC)c1` [Example 833]: the results for the IC50 on MMP-1 (setting [2]), on MMP-13 (setting [3]) and at MMP-2 (setting [4]) were over 10 µM, 11 nM and 1750 nM, respectively.

`O=C(NO)C1(S(=O)(=O)c2ccc(N3CCC(Oc4ccccc4O)CC3)cc2)CCOCC1` [Example 835]: the IC50 on MMP-1 (setting [2]) was over 10 µM; at MMP-13 (setting [3]), 6 nM; on MMP-2 (setting [4]), 20 nM.

Turning to `O=C(Cc1ccccc1)C1CCN(c2ccc(S(=O)(=O)C3(C(=O)NO)CCOCC3)cc2)CC1` [Example 838], the IC50 was over 10 µM on MMP-1 (setting [2]), 3 nM at MMP-13 (setting [3]) and 70 nM at MMP-2 (setting [4]).

`O=C(NO)C1(S(=O)(=O)c2ccc(N3CCC(Nc4ccccc4O)CC3)cc2)CCOCC1` [Example 842]: the figures for the IC50 on MMP-1 (setting [2]), on MMP-13 (setting [3]) and at MMP-2 (setting [4]) were over 10 µM, 5.5 nM and 45.4 nM, respectively.

`O=C(c1ccc2ccccc2c1)C1CCN(c2ccc(S(=O)(=O)C3(C(=O)NO)CCOCC3)cc2)CC1` [Example 844]: the values for the IC50 on MMP-1, on MMP-13 (setting [3]) and at MMP-2 (setting [4]) were over 10 µM, 5 nM and 4700 nM, respectively.

Regarding `O=C(c1ccc(Cl)c(Cl)c1)C1CCN(c2ccc(S(=O)(=O)C3(C(=O)NO)CCOCC3)cc2)CC1` [Example 846], the results for the IC50 at MMP-1 (setting [2]), on MMP-13 (setting [3]) and on MMP-2 (setting [4]) were over 10 µM, 4.5 nM and 186 nM, respectively.

`O=C(NO)C1(S(=O)(=O)c2ccc(OC3CN(S(=O)(=O)Cc4ccccc4)C3)cc2)CCOCC1` [Example 850]: the IC50 on MMP-1 (setting [2]) was over 10 µM; at MMP-13 (setting [3]), 4.5 nM; on MMP-2 (setting [4]), 150 nM.

Regarding `Cc1cc(C(=O)C2CCN(c3ccc(S(=O)(=O)C4(C(=O)NO)CCOCC4)cc3)CC2)ccc1Cl` [Example 858], the IC50 at MMP-1 (setting [2]) is over 10 µM; on MMP-13 (setting [3]), 3.7 nM; on MMP-2 (setting [4]), 600 nM.

For `CCCc1ccc(C(=O)C2CCN(c3ccc(S(=O)(=O)C4(C(=O)NO)CCOCC4)cc3)CC2)cc1` [Example 860], the IC50 is over 10 µM at MMP-1 (setting [2]), 2.7 nM at MMP-13 (setting [3]) and 1500 nM on MMP-2 (setting [4]).

With `CNC(=O)[C@@H](NC(=O)[C@H](CC(C)C)[C@H](O)C(=O)NO)C(C)(C)C` [marimastat, Marimastat], the “most common drug-related toxicity” value in data set [1] (clinical trials in patients) is “musculoskeletal pain and stiffness”. The “cancer-specific antigens used as surrogate markers for biological activity” value in data set [1] (patients with colorectal, pancreatic, ovarian, prostate cancers) is “dose-related reduction in the rise of cancer-specific antigens”.

In the case of “Tetrahydro-4-[[4-(pentaflourooxy)phenyl]sulfonyl]-2H-thiopyran-4-carboxamide [Example 225]”, the IC50 on MMP-1 (setting [2]) was over 10 µM; at MMP-13 (setting [3]) it was 180 nM; on MMP-2 (setting [4]), 41.8 nM.

For “Tetrahydro-N-hydroxy-4-[[4-(pentaflourooxy)phenyl]sulfonyl]-2H-thiopyran-4-carboxamide [Example 224]”, the half-inhibitory concentration (IC50) is 4.5 µM at MMP-1 (setting [2]), under 0.1 nM at MMP-13 (setting [3]) and under 0.1 nM on MMP-2 (setting [4]).
